Laboratory results as given in patent publication US20240025899A1, “TRIHETEROCYCLIC DERIVATIVE, AND PHARMACEUTICAL COMPOSITION AND APPLICATION THEREOF” (SHANGHAI DE NOVO PHARMATECH CO., LTD., priority 2020, published 2024).
Counter-ions that a name gives are not always drawn.

System: OCI-LY19 human B-cell lymphoma
Assay: In vivo drug efficacy, OCI-LY19 human B-cell lymphoma mouse subcutaneous xenograft tumor model
Protocol: Cell culture: Human B-cell lymphoma OCI-LY19 cells were maintained as a monolayer in MEM-α medium containing 10% fetal bovine serum in a constant temperature incubator at 37° C. with 5% CO2. Tumor cells were subcultured twice a week. Cells in exponential growth phase were harvested and counted for inoculation.
Experimental animals: BALB/c nude mice, 6-8 weeks old, 19-22 g, purchased from Beijing Vital River Laboratory Animal Technology Co., Ltd.
For Vehicle, positive control (AZD6738, CAS number: 1352226-88-0) and compound 2, a total of 6 experimental groups were set up, as shown in Table 5 below:
Experimental method: The OCI-LY19 cell line (3.0×10^6 cells/mouse) was inoculated subcutaneously on the right back of the experimental mouse, and the inoculation volume of each mouse was 0.1 mL, and the growth of tumors was observed regularly, and until the tumor grew to about 100 mm^3, the mice were randomly divided into groups according to the tumor size and body weight, and administered according to the administration plan shown in Table 5, and the mouse body weight and tumor size were measured twice a week during the whole experiment.
tumor volume (mm^3)=0.5×(tumor long diameter×tumor short diameter^2). Tumor size calculation formula: […]

[1] = Group 3, 5 mg/kg p.o. once a day
[2] = Group 4, 10 mg/kg p.o. once a day
[3] = Group 5, 10 mg/kg p.o. once a day × 4 days on, 3 days off
[4] = Group 6, 20 mg/kg p.o. once a day × 4 days on, 3 days off

Which “T/C (%)” value [1] does the source give for C[C@@H]1COCCN1c1nc2c(cnn2-c2cc[nH]n2)c2c1CCN2S(C)(=O)=O [Compound 2, (R)-3-methyl-4-(1-(methylsulfonyl)-6-(1H-pyrazol-3-yl)-1,2,3,6-tetrahydropyrazolo[3,4-b]pyrrolo[2,3-d]pyridin-4-yl)morpholine trifluoroacetate] here?
The value was 17.9%.

And the “TGI (%)” value [1]?
The value was 86.0%.

What about the “Tumor volume (10 days, mm^3)” value [1] of the same molecule?
The value was 109.41 ± 4.35 mm^3.

What about the “Tumor volume (24 days, mm^3)” value [1] of the same molecule?
Its value is 424.51 ± 77.26 mm^3.

What about the “T/C (%)” value [2] of the same molecule?
The value was 8.5%.

What about the “TGI (%)” value [2] of the same molecule?
The value was 95.9%.

And the “Tumor volume (10 days, mm^3)” value [2]?
The value was 109.00 ± 4.19 mm^3.

What about the “Tumor volume (24 days, mm^3)” value [2] of the same molecule?
The value was 202.09 ± 44.85 mm^3.

What about the “T/C (%)” value [3] of the same molecule?
The value was 15.9%.

What about the “TGI (%)” value [3] of the same molecule?
The value was 88.2%.

And the “Tumor volume (10 days, mm^3)” value [3]?
Its value is 109.20 ± 3.96 mm^3.

What about the “Tumor volume (24 days, mm^3)” value [3] of the same molecule?
Its value is 375.56 ± 92.96 mm^3.

And the “T/C (%)” value [4]?
The value was 7.9%.

And the “TGI (%)” value [4]?
Its value is 96.5%.

What about the “Tumor volume (10 days, mm^3)” value [4] of the same molecule?
Its value is 109.24 ± 4.22 mm^3.

And the “Tumor volume (24 days, mm^3)” value [4]?
The value was 187.91 ± 27.01 mm^3.
